{"source": "ChEMBL document CHEMBL4765227", "about": "“Hit to lead optimization of a series of N-[4-(1,3-benzothiazol-2-yl)phenyl]acetamides as monoacylglycerol lipase inhibitors with potential anticancer activity” (Eur J Med Chem, 2016)", "assay_type_in_all_cases": "functional", "conditions_in_all_cases": "read-out: GI", "key": {"NCI-H522": {"test_system": "NCI-H522", "experiment": "Growth inhibition of human NCI-H522 cells at 10 uM incubated for 48 hrs by sulforhodamine B assay relative to control"}, "UACC-62": {"test_system": "UACC-62", "experiment": "Growth inhibition of human UACC-62 cells at 10 uM incubated for 48 hrs by sulforhodamine B assay relative to control"}, "HOP-62": {"test_system": "HOP-62", "experiment": "Growth inhibition of human HOP-62 cells at 10 uM incubated for 48 hrs by sulforhodamine B assay relative to control"}, "OVCAR-8": {"test_system": "OVCAR-8", "experiment": "Growth inhibition of human OVCAR-8 cells at 10 uM incubated for 48 hrs by sulforhodamine B assay relative to control"}, "NCI-H226": {"test_system": "NCI-H226", "experiment": "Growth inhibition of human NCI-H226 cells at 10 uM incubated for 48 hrs by sulforhodamine B assay relative to control"}, "MDA-MB-468": {"test_system": "MDA-MB-468", "experiment": "Growth inhibition of human MDA-MB-468 cells at 10 uM incubated for 48 hrs by sulforhodamine B assay relative to control"}, "SW-620": {"test_system": "SW-620", "experiment": "Growth inhibition of human SW-620 cells at 10 uM incubated for 48 hrs by sulforhodamine B assay relative to control"}, "K562": {"test_system": "K562", "experiment": "Growth inhibition of human K562 cells at 10 uM incubated for 48 hrs by sulforhodamine B assay relative to control"}, "MDA-MB-231": {"test_system": "MDA-MB-231", "experiment": "Growth inhibition of human MDA-MB-231 cells at 10 uM incubated for 48 hrs by sulforhodamine B assay relative to control"}, "MOLT-4": {"test_system": "MOLT-4", "experiment": "Growth inhibition of human MOLT-4 cells at 10 uM incubated for 48 hrs by sulforhodamine B assay relative to control"}, "SN12C": {"test_system": "SN12C", "experiment": "Growth inhibition of human SN12C cells at 10 uM incubated for 48 hrs by sulforhodamine B assay relative to control"}, "MDA-MB-435": {"test_system": "MDA-MB-435", "experiment": "Growth inhibition of human MDA-MB-435 cells at 10 uM incubated for 48 hrs by sulforhodamine B assay relative to control"}, "HCC 2998": {"test_system": "HCC 2998", "experiment": "Growth inhibition of human HCC 2998 cells at 10 uM incubated for 48 hrs by sulforhodamine B assay relative to control"}, "KM12": {"test_system": "KM12", "experiment": "Growth inhibition of human KM12 cells at 10 uM incubated for 48 hrs by sulforhodamine B assay relative to control"}, "SK-MEL-5": {"test_system": "SK-MEL-5", "experiment": "Growth inhibition of human SK-MEL-5 cells at 10 uM incubated for 48 hrs by sulforhodamine B assay relative to control"}, "NCI-H322M": {"test_system": "NCI-H322M", "experiment": "Growth inhibition of human NCI-H322M cells at 10 uM incubated for 48 hrs by sulforhodamine B assay relative to control"}, "IGROV-1": {"test_system": "IGROV-1", "experiment": "Growth inhibition of human IGROV-1 cells at 10 uM incubated for 48 hrs by sulforhodamine B assay relative to control"}, "T47D": {"test_system": "T47D", "experiment": "Growth inhibition of human T47D cells at 10 uM incubated for 48 hrs by sulforhodamine B assay relative to control"}, "CCRF-CEM": {"test_system": "CCRF-CEM", "experiment": "Growth inhibition of human CCRF-CEM cells at 10 uM incubated for 48 hrs by sulforhodamine B assay relative to control"}, "SK-OV-3": {"test_system": "SK-OV-3", "experiment": "Growth inhibition of human SK-OV-3 cells at 10 uM incubated for 48 hrs by sulforhodamine B assay relative to control"}, "ACHN": {"test_system": "ACHN", "experiment": "Growth inhibition of human ACHN cells at 10 uM incubated for 48 hrs by sulforhodamine B assay relative to control"}, "BT-549": {"test_system": "BT-549", "experiment": "Growth inhibition of human BT-549 cells at 10 uM incubated for 48 hrs by sulforhodamine B assay relative to control"}, "SK-MEL-28": {"test_system": "SK-MEL-28", "experiment": "Growth inhibition of human SK-MEL-28 cells at 10 uM incubated for 48 hrs by sulforhodamine B assay relative to control"}, "RXF 393": {"test_system": "RXF 393", "experiment": "Growth inhibition of human RXF 393 cells at 10 uM incubated for 48 hrs by sulforhodamine B assay relative to control"}, "TK-10": {"test_system": "TK-10", "experiment": "Growth inhibition of human TK-10 cells at 10 uM incubated for 48 hrs by sulforhodamine B assay relative to control"}, "HOP-92": {"test_system": "HOP-92", "experiment": "Growth inhibition of human HOP-92 cells at 10 uM incubated for 48 hrs by sulforhodamine B assay relative to control"}, "PC-3": {"test_system": "PC-3", "experiment": "Growth inhibition of human PC-3 cells at 10 uM incubated for 48 hrs by sulforhodamine B assay relative to control"}, "HL-60(TB)": {"test_system": "HL-60(TB)", "experiment": "Growth inhibition of human HL-60(TB) cells at 10 uM incubated for 48 hrs by sulforhodamine B assay relative to control"}, "UO-31": {"test_system": "UO-31", "experiment": "Growth inhibition of human UO-31 cells at 10 uM incubated for 48 hrs by sulforhodamine B assay relative to control"}, "OVCAR-5": {"test_system": "OVCAR-5", "experiment": "Growth inhibition of human OVCAR-5 cells at 10 uM incubated for 48 hrs by sulforhodamine B assay relative to control"}, "M14": {"test_system": "M14", "experiment": "Growth inhibition of human M14 cells at 10 uM incubated for 48 hrs by sulforhodamine B assay relative to control"}, "CAKI-1": {"test_system": "CAKI-1", "experiment": "Growth inhibition of human CAKI-1 cells at 10 uM incubated for 48 hrs by sulforhodamine B assay relative to control"}, "DU-145": {"test_system": "DU-145", "experiment": "Growth inhibition of human DU-145 cells at 10 uM incubated for 48 hrs by sulforhodamine B assay relative to control"}, "RPMI-8226": {"test_system": "RPMI-8226", "experiment": "Growth inhibition of human RPMI-8226 cells at 10 uM incubated for 48 hrs by sulforhodamine B assay relative to control"}, "HCT-116": {"test_system": "HCT-116", "experiment": "Growth inhibition of human HCT-116 cells at 10 uM incubated for 48 hrs by sulforhodamine B assay relative to control"}, "A549": {"test_system": "A549", "experiment": "Growth inhibition of human A549/ATCC cells at 10 uM incubated for 48 hrs by sulforhodamine B assay relative to control"}, "NCI-H460": {"test_system": "NCI-H460", "experiment": "Growth inhibition of human NCI-H460 cells at 10 uM incubated for 48 hrs by sulforhodamine B assay relative to control"}, "U-251": {"test_system": "U-251", "experiment": "Growth inhibition of human U-251 cells at 10 uM incubated for 48 hrs by sulforhodamine B assay relative to control"}, "SNB-19": {"test_system": "SNB-19", "experiment": "Growth inhibition of human SNB-19 cells at 10 uM incubated for 48 hrs by sulforhodamine B assay relative to control"}, "HCT-15": {"test_system": "HCT-15", "experiment": "Growth inhibition of human HCT-15 cells at 10 uM incubated for 48 hrs by sulforhodamine B assay relative to control"}, "SNB-75": {"test_system": "SNB-75", "experiment": "Growth inhibition of human SNB-75 cells at 10 uM incubated for 48 hrs by sulforhodamine B assay relative to control"}, "HT-29": {"test_system": "HT-29", "experiment": "Growth inhibition of human HT-29 cells at 10 uM incubated for 48 hrs by sulforhodamine B assay relative to control"}, "NCI/ADR-RES": {"test_system": "NCI/ADR-RES", "experiment": "Growth inhibition of human NCI/ADR-RES cells at 10 uM incubated for 48 hrs by sulforhodamine B assay relative to control"}}}
{"smiles": "O=C(Cn1ccnc1)Nc1ccc(-c2nc3ccccc3s2)cc1", "values": [{"measurement": "inhibition of growth at 10 µM", "setting": "NCI-H522", "result": 25.3, "unit": "%"}, {"measurement": "inhibition of growth at 10 µM", "setting": "UACC-62", "result": 17.1, "unit": "%"}, {"measurement": "inhibition of growth at 10 µM", "setting": "HOP-62", "result": 16.2, "unit": "%"}, {"measurement": "inhibition of growth at 10 µM", "setting": "OVCAR-8", "result": 19.7, "unit": "%"}, {"measurement": "inhibition of growth at 10 µM", "setting": "NCI-H226", "result": 33.4, "unit": "%"}, {"measurement": "inhibition of growth at 10 µM", "setting": "MDA-MB-468", "result": 99.2, "unit": "%"}, {"measurement": "inhibition of growth at 10 µM", "setting": "SW-620", "result": 0.17, "unit": "%"}, {"measurement": "inhibition of growth at 10 µM", "setting": "K562", "result": 60.4, "unit": "%"}, {"measurement": "inhibition of growth at 10 µM", "setting": "MDA-MB-231", "result": 19.9, "unit": "%"}, {"measurement": "inhibition of growth at 10 µM", "setting": "MOLT-4", "result": 31.9, "unit": "%"}, {"measurement": "inhibition of growth at 10 µM", "setting": "SN12C", "result": 15.4, "unit": "%"}, {"measurement": "inhibition of growth at 10 µM", "setting": "MDA-MB-435", "result": 18.4, "unit": "%"}, {"measurement": "inhibition of growth at 10 µM", "setting": "HCC 2998", "result": 5.1, "unit": "%"}, {"measurement": "inhibition of growth at 10 µM", "setting": "KM12", "result": 15.6, "unit": "%"}, {"measurement": "inhibition of growth at 10 µM", "setting": "SK-MEL-5", "result": 60.8, "unit": "%"}, {"measurement": "inhibition of growth at 10 µM", "setting": "NCI-H322M", "result": 1.71, "unit": "%"}, {"measurement": "inhibition of growth at 10 µM", "setting": "IGROV-1", "result": 31.1, "unit": "%"}, {"measurement": "inhibition of growth at 10 µM", "setting": "T47D", "result": 48.6, "unit": "%"}, {"measurement": "inhibition of growth at 10 µM", "setting": "CCRF-CEM", "result": 30.9, "unit": "%"}, {"measurement": "inhibition of growth at 10 µM", "setting": "SK-OV-3", "result": 12.2, "unit": "%"}, {"measurement": "inhibition of growth at 10 µM", "setting": "ACHN", "result": 9.7, "unit": "%"}, {"measurement": "inhibition of growth at 10 µM", "setting": "BT-549", "result": 34.9, "unit": "%"}, {"measurement": "inhibition of growth at 10 µM", "setting": "SK-MEL-28", "result": -4.87, "unit": "%"}, {"measurement": "inhibition of growth at 10 µM", "setting": "RXF 393", "result": -2.19, "unit": "%"}, {"measurement": "inhibition of growth at 10 µM", "setting": "TK-10", "result": 18.2, "unit": "%"}, {"measurement": "inhibition of growth at 10 µM", "setting": "HOP-92", "result": 24.2, "unit": "%"}, {"measurement": "inhibition of growth at 10 µM", "setting": "PC-3", "result": 34.1, "unit": "%"}, {"measurement": "inhibition of growth at 10 µM", "setting": "HL-60(TB)", "result": 22.7, "unit": "%"}, {"measurement": "inhibition of growth at 10 µM", "setting": "UO-31", "result": 39.6, "unit": "%"}, {"measurement": "inhibition of growth at 10 µM", "setting": "OVCAR-5", "result": -3.81, "unit": "%"}, {"measurement": "inhibition of growth at 10 µM", "setting": "M14", "result": 5.59, "unit": "%"}, {"measurement": "inhibition of growth at 10 µM", "setting": "CAKI-1", "result": 33.8, "unit": "%"}, {"measurement": "inhibition of growth at 10 µM", "setting": "DU-145", "result": 18.9, "unit": "%"}, {"measurement": "inhibition of growth at 10 µM", "setting": "RPMI-8226", "result": 48, "unit": "%"}, {"measurement": "inhibition of growth at 10 µM", "setting": "HCT-116", "result": 31.9, "unit": "%"}, {"measurement": "inhibition of growth at 10 µM", "setting": "A549", "result": 29.7, "unit": "%"}, {"measurement": "inhibition of growth at 10 µM", "setting": "NCI-H460", "result": 20.2, "unit": "%"}, {"measurement": "inhibition of growth at 10 µM", "setting": "U-251", "result": 28.1, "unit": "%"}, {"measurement": "inhibition of growth at 10 µM", "setting": "SNB-19", "result": 23.6, "unit": "%"}, {"measurement": "inhibition of growth at 10 µM", "setting": "HCT-15", "result": 13, "unit": "%"}, {"measurement": "inhibition of growth at 10 µM", "setting": "SNB-75", "result": 11.2, "unit": "%"}, {"measurement": "inhibition of growth at 10 µM", "setting": "HT-29", "result": 6.65, "unit": "%"}, {"measurement": "inhibition of growth at 10 µM", "setting": "NCI/ADR-RES", "result": 11.8, "unit": "%"}]}
